Measurements as given in PubChem BioAssay AID1918941 (Molecular Pharmacology Branch, DTP, NCI, 2023).
pIC50: −log10 of the molar value.

Test system: SW 1271 complex spheroids, viability
Assay: Anticancer human tumor SW 1271 cell line growth inhibition [LSD1];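 note: spheroids exposed to agents for 7 days before luminescence read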;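 for viability, T/C: 100% = DMSO vehicle control viability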
Conditions: for pIC50: curve of first compound; for viability, T/C: stronger effect = lower value
Method in brief: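 Drug combinations with the LSD1 inhibitor iadademstat tested on tumor cells co-cultured as spheroids with endothelial cells and mesenchymal stem cells. Concentrations descended in half-log increments from clinical Cmax or 10 microM.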

`CC(C)c1c(-c2ccccc2)nc2c(C#N)c[nH]n2c1=O` + NC1CCC(NC2CC2c2ccccc2)CC1 showed a pIC50 (second compound 0.1 µM) of under 5.00, a pIC50 (second compound 0.316 µM) of under 5.00 and a pIC50 (second compound 1 µM) of under 5.00. The pIC50 (second compound 3.16 µM) was under 5.00, the pIC50 (second compound 10 µM) was under 5.00 and the viability, T/C (second compound 0.1 µM, first compound 0.0316 µM) was 85.7%. For the same compound, the viability, T/C (second compound 0.1 µM, first compound 0.1 µM) was 80.3%, the viability, T/C (second compound 0.1 µM, first compound 0.316 µM) was 79.1% and the viability, T/C (second compound 0.1 µM, first compound 1 µM) was 82.8%. The viability, T/C (second compound 0.1 µM, first compound 3.16 µM) was 71.1%, the viability, T/C (second compound 0.1 µM, first compound 10 µM) was 69.4% and the viability, T/C (second compound 0.316 µM, first compound 0.0316 µM) was 75.2%. It also gave a viability, T/C (second compound 0.316 µM, first compound 0.1 µM) of 89.2%, a viability, T/C (second compound 0.316 µM, first compound 0.316 µM) of 77.9% and a viability, T/C (second compound 0.316 µM, first compound 1 µM) of 74.2%. For the same compound, the viability, T/C (second compound 0.316 µM, first compound 3.16 µM) was 68.9%, the viability, T/C (second compound 0.316 µM, first compound 10 µM) was 54.7% and the viability, T/C (second compound 1 µM, first compound 0.0316 µM) was 74.1%. It also gave a viability, T/C (second compound 1 µM, first compound 0.1 µM) of 74.8%, a viability, T/C (second compound 1 µM, first compound 0.316 µM) of 75.5% and a viability, T/C (second compound 1 µM, first compound 1 µM) of 80.1%. The viability, T/C (second compound 1 µM, first compound 3.16 µM) was 68.8%, the viability, T/C (second compound 1 µM, first compound 10 µM) was 59.4% and the viability, T/C (second compound 3.16 µM, first compound 0.0316 µM) was 76.6%. It also gave a viability, T/C (second compound 3.16 µM, first compound 0.1 µM) of 73.1%, a viability, T/C (second compound 3.16 µM, first compound 0.316 µM) of 71.5% and a viability, T/C (second compound 3.16 µM, first compound 1 µM) of 68.8%. The viability, T/C (second compound 3.16 µM, first compound 3.16 µM) was 71.9%, the viability, T/C (second compound 3.16 µM, first compound 10 µM) was 64.2% and the viability, T/C (second compound 10 µM, first compound 0.0316 µM) was 66.7%. The viability, T/C (second compound 10 µM, first compound 0.1 µM) was 60.5%, the viability, T/C (second compound 10 µM, first compound 0.316 µM) was 70.1% and the viability, T/C (second compound 10 µM, first compound 1 µM) was 65.5%. It also gave a viability, T/C (second compound 10 µM, first compound 3.16 µM) of 65.8% and a viability, T/C (second compound 10 µM, first compound 10 µM) of 46.5%.
